Assay results from US9211296B2, “Therapeutic compounds for blocking DNA synthesis of POX viruses” (priority 2007, dated 2015).
Like-named read-outs stand apart in the source and are kept apart here.

What was measured:
[1] = system: vaccinia virus WR; assay: microbe, parasite or virus in culture; type: cell-based; conditions: for EC50: Orthopoxvirus vaccinia
[2] = system: vaccinia virus WR; assay: microbe, parasite or virus in culture; type: cell-based; conditions: Orthopoxvirus vaccinia
[3] = system: BS-C-1 cells; assay: WST-1 cytotoxicity assay; conditions: for tox 20 h TC50 / tox 72 h TC50 / tox 120 h TC50: Table 6; for CC50: Table 4
[4] = WST-1 cytotoxicity assay; conditions: African green monkey, BS-C-1 cells
[5] = system: vaccinia virus WR; type: cell-based
[6] = biological target: vaccinia virus DNA synthesis (viral DNA polymerase and its associated factors) (Vaccinia virus, UniProt P06856); type: biochemical
[7] = Solubility in cell growth medium by light scattering; conditions: concentrations of the activity assays
Experimental: These 16 compounds were tested for cell protection and cytotoxicity over longer times (48 h and 72 h). […] The solubility of the 16 compounds was verified in cell growth medium over the range of concentrations used in the activity assays.

[8] = 20 h, read-out: Cell Protection 20 h EC50
[9] = BSC-1, 20 h, read-out: cell prot EC50
[10] = 20 h, read-out: Plaque Reduction 20 h EC50
[11] = BSC-1, 20 h, read-out: plaque red EC50
[12] = read-out: Cytotoxicity 72 h CC50, 72 h
[13] = read-out: Cytotoxicity 120 h CC50, 120 h
[14] = read-out: DNA Synthesis Inhibition IC50
[15] = read-out: Cytotoxicity 20 h CC50, 20 h

Compound | Selectivity Index SI [1] | EC50 [1, 8] [µM] | EC50 [1, 9] [µM] | EC50 [2, 10] [µM] | EC50 [2, 11] [µM] | tox 20 h TC50 ([3]; 20 h) [µM] | tox 72 h TC50 ([3]; 72 h) [µM] | tox 120 h TC50 ([3]; 120 h) [µM] | CC50 [3, 12] [µM] | CC50 [3, 13] [µM] | CC50 at 20 h [4] [µM] | Effect of dsDNA [5] | trapped by dsDNA [5] | selectivity index [1] | IC50 [6, 14] [µM] | IC50 ([6]; read-out: DNA synth IC50) [µM] | CC50 [3, 15] [µM] | CC50 at 72 h [4] [µM] | CC50 at 120 h [4] [µM] | Solubility in cell growth medium [7]
Nc1ccn(C[C@@H](CO)OCP(=O)(O)O)c(=O)n1 [Cidofovir, reference compound] | >18.9 | 132 | 132 | 50 | 50 | >500 | >500 | 300 | > 500 | 300 | > 2500 | No | no |  |  |  |  |  |  | 
Cc1cc(/N=C/c2cc(Cl)cc(Cl)c2O)no1 [Compound 6] | >2.1 | 95 | 95 | 75 | 75 | >200 | 50 | 20 |  | 20 |  | No | no | >2.1 | 30 | 30 | > 200 | ~50 |  | 
Cc1c(/N=C/c2cc(Br)cc(Br)c2Br)cccc1C(=O)O [Compound 7] | >2 | 100 | 100 | 75 | 75 | >200 | 38 | 20 |  |  | > 200 | No | no | >2 | 26 | 26 |  | 38 | 20 | 
Cc1cc(OC(=O)c2ccco2)nc(SCc2c(Cl)cccc2Cl)n1 [Compound 8] | >2 | 100 | 100 | 75 | 75 | >100 | >100 | >100 |  |  | > 200 | No | no | >2 | 52 | 52 |  |  |  | just slightly insoluble at the EC50
O=C(Nc1ccccc1C(=O)O)OCC1c2ccccc2-c2ccccc21 [Compound 9] | >1.9 | 104 | 104 | 75 | 75 | >200 | 40 | 20 |  | 20 |  | No | no | >1.9 | 26 | 26 | > 200 | 30 to 50 |  | 
CCS(=O)(=O)N1CCN=C1SCc1ccc(Cl)cc1Cl [Compound 10] |  | 90 | 90 | 25 | 25 | 166 |  |  |  |  |  | No | no |  | 188 | 188 | 166 |  | 25 | just slightly insoluble at the EC50
N=C1S/C(=C/c2ccco2)C(=O)N1c1nccs1 [Compound 12] | >1.2 | 80 | 80 | 75 | 75 | >100 | >100 | 50 |  |  |  | No | no | >1.2 | 32 | 32 | > 100 | > 50 |  | just slightly insoluble at the EC50
O=C(O)Cn1c2ccc(Cl)cc2c2nc3ccccc3nc21 [Compound 13] |  | 100 | 100 | 50 | 50 | >100 | 13 | 30 | 13 | 30 |  | No | no |  |  |  | > 100 |  |  | just slightly insoluble at the EC50
CC(=O)n1c2ccccc2c2nc(C)sc21 [Compound 15] | >1 | 236 | 236 | 100 | 100 | >200 | >200 | 75 | > 200 | 75 |  | No | no | >1 | 111 | 111 | > 200 |  |  | 
O=C1/C(=C/C2CCCO2)CC/C1=C\C1CCCO1 (stereo not shown) [Compound 16] | >1 | 100 | 100 | 50 | 50 | >100 | >100 | 50 |  |  |  | No | no | >1 | 239 | 239 | > 100 |  |  | just slightly insoluble at the EC50
